The record followed here is publication PMC8881573, “Inhibition of SRP-dependent protein secretion by the bacterial alarmone (p)ppGpp” (Nature Communications, 2022).

Molecules are shown by their SMILES. Values joined by “and” are separate entries in the source; they are usually repeats but may differ in a detail not shown here. Identical values can stand only once.

Test [1] addresses T1, (Bs)Ffh-NG (Bacillus subtilis, UniProt P37105).
T1 construct: purified NG domains of (Ec)Ffh, (Ec)FtsY and (Bs)Ffh; His6 (N); made in house; host or cells: E. coli Rosetta pLysS
T1 sequence (P37105 1-297 limits assumed): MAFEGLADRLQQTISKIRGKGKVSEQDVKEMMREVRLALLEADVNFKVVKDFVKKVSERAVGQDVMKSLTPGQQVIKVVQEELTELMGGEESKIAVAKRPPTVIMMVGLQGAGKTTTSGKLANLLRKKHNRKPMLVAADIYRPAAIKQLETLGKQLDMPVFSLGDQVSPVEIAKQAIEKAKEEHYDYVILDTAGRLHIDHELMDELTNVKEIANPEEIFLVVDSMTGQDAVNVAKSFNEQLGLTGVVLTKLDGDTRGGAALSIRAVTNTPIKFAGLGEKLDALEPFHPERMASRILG
The test can be described thus: Microscale thermophoresis (MST) ligand binding. Also noted: species or system B. subtilis. The conditions noted are these: NG domain labeled with NT 647, 21 °C. How it is done:
(§1) Ligand binding assays with purified NG domains of (Ec)Ffh, (Ec)FtsY and (Bs)Ffh proteins were carried out by microscale thermophoresis (MST)[80]. All experiments were performed on a Monolith NT.115 (NanoTemper Technologies GmbH, Munich, Germany; software: NanoTemper Control Version 2.0.2.29) at 21 °C (red LED power was set to 50–100% and infrared laser power to 75%). After labeling of primary amines within (Ec)Ffh, (Ec)FtsY, and (Bs)Ffh (50 µM each) with the dye NT 647 (according to the manufacturers protocol), the proteins were re-buffered in SEC buffer containing 20 mM HEPES-Na, 20 mM KCl, 20 mM MgCl2, 200 mM NaCl (final pH 7.5), 10 mg ml^−1 BSA and 0.007% Tween. Two-hundred nanomolar of (Ec)Ffh, (Ec)FtsY, and (Bs)Ffh were titrated with GDP, GTP, ppGpp, and pppGpp starting from a concentration ranging between 0.75 and 3 mM, respectively. At least six independent MST experiments per ligand and protein were recorded at 680 nm and analyzed using NanoTemper Analysis version 1.5.37 and 1.2.009, and Origin8G software suits.

Test [2] deals with T2, (Ec)FtsY-NG (Escherichia coli, UniProt P10121).
T2 construct: purified NG domains of (Ec)Ffh, (Ec)FtsY and (Bs)Ffh; His6 (C); made in house; host or cells: E. coli BL21 (DE3)
The experiment in a line: Microscale thermophoresis (MST) ligand binding. More on the design: species or system E. coli. Conditions: NG domain labeled with NT 647, 21 °C. How it is done: as §1

In test [3] the target is T3, (Ec)Ffh-NG (Escherichia coli, UniProt P0AGD7).
T3 construct: purified NG domains of (Ec)Ffh, (Ec)FtsY and (Bs)Ffh; His6 (C); made in house; host or cells: E. coli BL21 (DE3)
The experiment in a line: Microscale thermophoresis (MST) ligand binding. Also noted: species or system E. coli. The conditions noted are these: NG domain labeled with NT 647, 21 °C. How it is done: as §1

The target of test [4] is T2, (Ec)FtsY-NG. The experiment in a line: Isothermal titration calorimetry (ITC) of nucleotide binding. Conditions: NG domain, 25 °C, one set of sites model. Also noted: species or system E. coli. How it is done: (§2) Ligands and proteins (purified NG domains of (Ec)Ffh, (Ec)FtsY and (Bs)Ffh) were diluted with a buffer containing 20 mM HEPES-Na (pH 7.5), 200 mM NaCl, 20 mM MgCl2 and 20 mM KCl. The NG domains of (Ec)Ffh, (Ec)FtsY and (Bs)Ffh were titrated in the sample-cell at a nominal concentration of 25 µM each. The nucleotides GDP, GTP, ppGpp and pppGpp (Jena Bioscience, Germany) were placed in the syringe and their concentrations were predetermined by absorbance at 252 nm to saturate the protein samples during the titrations. All the measurements were performed at 25 °C with the instrument MicroCal PEAQ-ITC (©Malvern Panalytical) with a method consisting of 13 injections (first 0.4 µL, and the rest 3 µL each) and 150 s of spacing. The raw data (see source) were processed with the MicroCal PEAQ-ITC Analysis Software (©Malvern Panalytical) using the “one set of sites” models.

Test [5] concerns the target T3, (Ec)Ffh-NG. The description is as above. More on the design: species or system E. coli. The method, then:
as §2

Test [6] addresses T1, (Bs)Ffh-NG. The description is as above. More on the design: species or system B. subtilis. The conditions noted are these: NG domain, 25 °C, one set of sites model. The method, then: as §2

T3 sequence (P0AGD7 1-296): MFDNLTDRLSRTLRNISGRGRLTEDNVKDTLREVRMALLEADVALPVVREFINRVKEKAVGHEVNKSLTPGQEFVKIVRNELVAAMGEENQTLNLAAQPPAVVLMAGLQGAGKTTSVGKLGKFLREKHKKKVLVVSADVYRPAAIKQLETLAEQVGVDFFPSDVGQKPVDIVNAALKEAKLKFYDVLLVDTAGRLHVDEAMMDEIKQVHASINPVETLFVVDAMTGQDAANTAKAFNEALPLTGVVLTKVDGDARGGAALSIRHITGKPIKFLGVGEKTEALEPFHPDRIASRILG
T2 sequence (P10121 197-497): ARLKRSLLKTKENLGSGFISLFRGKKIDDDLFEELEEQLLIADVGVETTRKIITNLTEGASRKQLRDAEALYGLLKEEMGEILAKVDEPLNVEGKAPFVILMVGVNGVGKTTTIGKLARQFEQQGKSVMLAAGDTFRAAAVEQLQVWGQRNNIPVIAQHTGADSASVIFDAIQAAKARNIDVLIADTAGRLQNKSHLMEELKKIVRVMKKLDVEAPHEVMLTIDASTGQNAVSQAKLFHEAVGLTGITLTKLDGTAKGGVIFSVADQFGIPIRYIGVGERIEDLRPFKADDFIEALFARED

With `Nc1nc2c(ncn2[C@@H]2O[C@H](COP(=O)(O)OP(=O)(O)O)[C@@H](O)[C@H]2O)c(=O)[nH]1` [GDP], the Kd on (Bs)Ffh-NG [1] is 9.23 ± 0.99 µM; on (Ec)FtsY-NG [2] (read-out: (Ec)FtsY KD MST) it was 9.6 µM and 9.63 µM; on (Ec)Ffh-NG [3] it was 7.9 µM and 7.94 µM; at (Ec)FtsY-NG [4], 9.8 ± 1.1 µM; on (Ec)Ffh-NG [5] it was 2.2 ± 0.6 µM; at (Bs)Ffh-NG [6], 1.2 ± 0.7 µM.

As to `Nc1nc2c(ncn2[C@@H]2O[C@H](COP(=O)(O)OP(=O)(O)OP(=O)(O)O)[C@@H](O)[C@H]2O)c(=O)[nH]1` [GTP], the Kd on (Bs)Ffh-NG [1] was found to be 30.3 µM; at (Ec)FtsY-NG [2] ((Ec)FtsY KD MST), 63.8 µM; at (Ec)Ffh-NG [3] it was 62.3 µM; on (Ec)Ffh-NG [5], 0.7 ± 0.5 µM; at (Bs)Ffh-NG [6], 0.6 ± 0.5 µM.
